Test results taken from patent US20250213558A1, “T-TYPE CALCIUM CHANNEL MODULATORS COMPRISING A PIPERAZINE OR 1,4-DIAZEPANE CORE AND METHODS OF USE THEREOF” (Praxis Precision Medicines, Inc., priority 2022, published 2025).
pIC50: −log10 of the molar value.

target: T1, Human Cav3.1 calcium channel (Homo sapiens, UniProt O43497); experiment: Human Cav3.1 calcium channel patch clamp assay (SyncroPatch 384PE; single point and IC50, voltage dependent block); assay type: cell-based; conditions: not given
T1 construct: expressed in transfected cells; host or cells: HEK-293 natClytin/TASK1+Cav3.1 cell line
T1 sequence (O43497 whole entry): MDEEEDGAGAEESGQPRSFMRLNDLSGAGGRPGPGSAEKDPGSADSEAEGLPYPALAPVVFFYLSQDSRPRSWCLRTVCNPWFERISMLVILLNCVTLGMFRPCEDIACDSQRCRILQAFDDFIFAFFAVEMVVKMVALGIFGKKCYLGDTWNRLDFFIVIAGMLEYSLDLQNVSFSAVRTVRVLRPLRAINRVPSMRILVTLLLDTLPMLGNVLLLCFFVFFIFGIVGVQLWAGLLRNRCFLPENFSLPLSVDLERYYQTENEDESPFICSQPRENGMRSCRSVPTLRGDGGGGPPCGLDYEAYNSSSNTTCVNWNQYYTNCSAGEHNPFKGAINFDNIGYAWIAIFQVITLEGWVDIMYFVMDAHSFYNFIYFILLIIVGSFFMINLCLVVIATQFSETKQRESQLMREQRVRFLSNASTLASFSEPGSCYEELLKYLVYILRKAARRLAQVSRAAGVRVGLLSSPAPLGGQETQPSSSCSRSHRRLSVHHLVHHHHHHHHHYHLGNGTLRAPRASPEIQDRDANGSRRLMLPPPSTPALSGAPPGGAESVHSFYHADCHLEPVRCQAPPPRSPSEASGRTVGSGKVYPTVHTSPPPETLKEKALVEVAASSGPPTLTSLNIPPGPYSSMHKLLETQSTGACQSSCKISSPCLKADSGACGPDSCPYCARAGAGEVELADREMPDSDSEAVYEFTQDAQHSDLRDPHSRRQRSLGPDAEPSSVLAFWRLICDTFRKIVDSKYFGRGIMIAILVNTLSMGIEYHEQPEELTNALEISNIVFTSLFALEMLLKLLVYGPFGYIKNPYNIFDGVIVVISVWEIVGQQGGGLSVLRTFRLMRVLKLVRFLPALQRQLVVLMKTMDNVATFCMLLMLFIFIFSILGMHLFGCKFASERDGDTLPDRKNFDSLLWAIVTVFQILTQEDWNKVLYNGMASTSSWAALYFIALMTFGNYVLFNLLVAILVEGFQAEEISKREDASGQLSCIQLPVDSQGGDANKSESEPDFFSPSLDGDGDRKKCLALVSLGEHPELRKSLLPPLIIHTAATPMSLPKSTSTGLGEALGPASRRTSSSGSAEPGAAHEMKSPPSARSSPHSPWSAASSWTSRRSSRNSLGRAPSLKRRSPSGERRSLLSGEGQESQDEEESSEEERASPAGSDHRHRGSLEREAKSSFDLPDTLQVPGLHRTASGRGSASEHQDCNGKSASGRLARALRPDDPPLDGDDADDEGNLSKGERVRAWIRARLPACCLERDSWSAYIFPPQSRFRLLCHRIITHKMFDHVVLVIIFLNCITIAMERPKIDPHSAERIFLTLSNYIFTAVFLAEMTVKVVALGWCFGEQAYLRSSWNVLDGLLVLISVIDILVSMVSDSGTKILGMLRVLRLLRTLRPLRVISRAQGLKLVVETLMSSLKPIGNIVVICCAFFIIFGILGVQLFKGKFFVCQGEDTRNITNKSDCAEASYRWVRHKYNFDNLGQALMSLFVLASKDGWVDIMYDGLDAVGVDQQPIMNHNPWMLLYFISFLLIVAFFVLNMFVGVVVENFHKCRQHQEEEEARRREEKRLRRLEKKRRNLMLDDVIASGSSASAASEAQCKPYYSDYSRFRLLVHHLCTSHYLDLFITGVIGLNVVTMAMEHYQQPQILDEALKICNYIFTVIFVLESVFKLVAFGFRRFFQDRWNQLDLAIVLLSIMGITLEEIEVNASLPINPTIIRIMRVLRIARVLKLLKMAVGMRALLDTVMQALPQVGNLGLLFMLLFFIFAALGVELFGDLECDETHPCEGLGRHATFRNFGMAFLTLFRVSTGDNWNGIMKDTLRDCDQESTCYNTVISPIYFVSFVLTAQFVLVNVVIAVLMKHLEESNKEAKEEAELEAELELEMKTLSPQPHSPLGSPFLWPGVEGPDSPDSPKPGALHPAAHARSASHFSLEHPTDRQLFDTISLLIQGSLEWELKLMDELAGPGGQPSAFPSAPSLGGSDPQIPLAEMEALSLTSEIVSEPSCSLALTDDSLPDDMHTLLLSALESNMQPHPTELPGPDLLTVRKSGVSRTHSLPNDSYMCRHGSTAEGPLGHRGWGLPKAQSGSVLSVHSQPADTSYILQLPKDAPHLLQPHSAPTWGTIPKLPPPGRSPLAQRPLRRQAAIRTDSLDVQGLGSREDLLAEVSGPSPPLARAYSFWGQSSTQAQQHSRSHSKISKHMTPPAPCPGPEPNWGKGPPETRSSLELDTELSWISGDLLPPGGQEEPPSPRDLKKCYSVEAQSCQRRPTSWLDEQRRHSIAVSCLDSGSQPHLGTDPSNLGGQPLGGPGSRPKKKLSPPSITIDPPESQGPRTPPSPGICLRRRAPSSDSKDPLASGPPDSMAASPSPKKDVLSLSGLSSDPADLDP
Experimental: Certain compounds (as indicated) were tested for Human Cav3.1 calcium channel activity via a patch clamp assay as disclosed herein.
Pulse generation and data collection were performed with PatchController384 V1.3.0 and DataController384 V1.2.1 (Nanion Technologies). Offline analysis was performed using Excel and Graphpad Prism (V 8.4.2) with complete data files uploaded to Dotmatics. The access resistance and apparent membrane capacitance were estimated using built-in protocols. Current was recorded in whole cell configuration from a population of cells. The cells were lifted, triturated, and resuspended at 800,000 cells/ml. The cells were allowed to recover in the cell hotel prior to experimentation. Currents were recorded at room temperature. The external solution contained the following (in mM): NaCl 80, NMDG 60, KCl 4, MgCl2 1, CaCl2 6, glucose 5 and HEPES 10 (pH=7.4, Osmolarity˜300 mOsm). The extracellular solution was used as the wash, reference and compound delivery solution.
The compound plate was created at 2× concentrated in the extracellular solution. The compound was diluted to 1:2 when added to the recording well. The amount of DMSO in the extracellular solution was held constant at the level used for the highest tested concentration. For the voltage clamp experiments on Cav3.1, data were sampled at 10 KHz. After establishment of the seal and the passage in the whole cell configuration, the cells were held at −120 mV. Cav3.1 current was evoked using a 100 ms step to −20 mV (to measure resting state block), followed by a 1600 ms step to −65 mV and a second 100 ms step to −20 mV (to measure voltage dependent block). The voltage protocol was applied every 15 seconds in the absence and in the presence of the compounds under investigation. […] Current amplitude (pA) was measured in the peak 1 and 2. The average of last 3 sweeps of each liquid period (vehicle, compound under investigation, full block) was calculated. Nickel-sensitive current was used to calculate the % of inhibition in the presence of the compound under investigation.

| Structure (SMILES) | pIC50 |
| --- | --- |
| CC(C)(C)NC(=O)CN1C2CCC1CN(Cc1nc3c(Cl)cc(F)cc3[nH]1)C2 [Compound 64] | > 7.11 |
| CC1(C(=O)NCCN2C3CC2CN(Cc2nc4c(Cl)cc(F)cc4[nH]2)C3)CCC1 [Compound 137] | > 7.11 |
| Fc1cc(Cl)c2nc(CN3CC4CC(C3)N4CC3(F)CCC(F)(F)CC3)[nH]c2c1 [Compound 152] | > 7.11 |

same assay, conditions: Testing Conc 1; HEK-293 natClytin/TASK1+Cav3.1 cell line, patch clamp

| % Inhibition (Single Point Data) [%] | Structure (SMILES) |
| --- | --- |
| 56.921 | CC(C)(C)NC(=O)CN1CCCN(CC(=O)NC23CC4CC(CC(C4)C2)C3)CC1 [Compound 32] |
| 45.763 | CC(C)(C)NC(=O)CN1CCCN(CC(=O)Nc2cc(F)cc(Cl)c2)C(=O)C1 [Compound 36] |
| 51.943 | CC(C)(C)NC(=O)CN1CCCN(CC(=O)Nc2cc(F)cc(Cl)c2)CC1 [Compound 34] |
| 54.403 | CC(C)(C)NC(=O)CN1CCN(CC(=O)NC23CC4CC(CC(C4)C2)C3)C(=O)C1 [Compound 33] |
| 17.386 | Cn1nc(NC(=O)CN2CCN(CC(=O)NC(C)(C)C)CC2)c2ccccc21 [Compound 40] |

same assay, conditions: Testing Conc 1.25; HEK-293 natClytin/TASK1+Cav3.1 cell line, patch clamp

| Structure (SMILES) | % Inhibition (Single Point Data) [%] |
| --- | --- |
| CC(C)(C)NC(=O)CN1C[C@@H]2C[C@H]1CN2CC(=O)NC12CC3CC(CC(C3)C1)C2 [Compound 259] | 91.279 |
| CC1(C)CCC(=O)N1CCN1C2CC1CN(Cc1nc3c(Cl)cc(F)cc3[nH]1)C2 [Compound 150] | 66.439 |
| O=C(CN1C[C@@H]2C[C@H]1CN2CC(=O)NC1(C(F)(F)F)CC1)NC12CC3CC(CC(C3)C1)C2 [Compound 280] | 61.038 |
| CC(C)(C)NC(=O)CN1C[C@@H]2C[C@H]1CN2CCNC(=O)C12CC3CC(CC(C3)C1)C2 [Compound 323] | 17.66 |
| CC(c1nc2c(Cl)cc(F)cc2[nH]1)N1CC2CC(C1)N2CC(=O)NC(C)(C)C (stereo not shown) [Compound 200] | 93.175 |
| CC(C)(C)NC(=O)CN1C2CC1CN(CC(=O)NC13CCC(CC1)C3)C2 [Compound 308] | 33.02 |
| CC(C)(C)NC(=O)CN1C[C@@H]2C[C@H]1CN2CC(=O)NC12CC3CC(CC(Cl)(C3)C1)C2 [Compound 344] | 79.298 |
| CC(C)(C)NC(=O)CN1C2CCC1CN(Cc1nc3c(Cl)cc(F)cc3[nH]1)C2 [Compound 64] | 100.15 |
| CC1(C(=O)NCCN2C3CC2CN(Cc2nc4c(Cl)cc(F)cc4[nH]2)C3)CCC1 [Compound 137] | 96.095 |
| CC1(C)CCN1C(=O)CN1C2CC1CN(Cc1nc3c(Cl)cc(F)cc3[nH]1)C2 [Compound 94] | 89.896 |
| CC(C)(C)NC(=O)CN1C2CC1CN(CC(=O)Nc1cccc(Cl)c1)C2 [Compound 11] | 81.305 |
| CC1(C)CN(C(=O)CN2C[C@@H]3C[C@H]2CN3CC(=O)NC23CC4CC(CC(C4)C2)C3)C1 [Compound 317] | 48.399 |
| Cc1ccc(F)c2[nH]c(CN3CC4CC(C3)N4CC(=O)NC(C)(C)C)nc12 [Compound 207] | 97.657 |
| O=C(CN1C2CCC1CN(Cc1nc3c(Cl)cc(F)cc3[nH]1)C2)N1CCC(F)(F)CC1 [Compound 81] | 100.06 |
| CC(C)(C)NC(=O)CN1C[C@@H]2C[C@H]1CN2CC(=O)Nc1cc(F)cc(Cl)c1 [Compound 58] | 91.889 |
| CC(C(=O)Nc1ccc(F)c(Cl)c1)N1C[C@@H]2C[C@H]1CN2CC(=O)NC(C)(C)C (stereo partly shown) [Compound 264] | 85.955 |
| CC(C)(C)NC(=O)CN1C2CC1CN(Cc1nc3c(F)ccc(F)c3[nH]1)C2 [Compound 165] | 87.314 |

| Structure (SMILES) | % Inhibition (Single Point Data) [%] |
| --- | --- |
| CC(C)(C)NC(=O)CN1C2CC1CN(CC(=O)Nc1ccn(Cc3ccc(C#N)cn3)n1)C2 [Compound 313] | −11.969 |
| CC(C(=O)NC(C)(C)C)N1C2CC1CN(CC(=O)Nc1ccc(F)c(OC(F)F)c1)C2 (stereo not shown) [Compound 254] | 93.503 |
| CC(C)(C)NC(=O)CN1CC2CC1CN2Cc1nc2c(Cl)cc(F)cc2[nH]1 (stereo not shown) [Compound 126] | 94.215 |
| COc1ccc(Cl)c2nc(CN3CC4CC(C3)N4CC(=O)NC(C)(C)C)[nH]c12 [Compound 206] | 95.576 |
| CC(C(=O)Nc1ccc(F)c(Cl)c1)N1CC2CC(C1)N2CC(=O)NC1(C(F)(F)F)CC1 (stereo not shown) [Compound 30] | 63.42 |
| O=C(CN1C[C@@H]2C[C@H]1CN2CC1(F)CCC(F)(F)CC1)NC12CC3CC(CC(C3)C1)C2 [Compound 279] | 79.691 |
| Fc1cc(Cl)c2nc(CN3CC4CC(C3)N4CC3(F)CCC(F)(F)CC3)[nH]c2c1 [Compound 152] | 70.533 |
| Fc1cc(Cl)c2nc(CN3CCN(CCc4ccccc4)CC3)[nH]c2c1 [Compound 69] | 86.68 |
| CC1(C(=O)NCCN2C3CC2CN(Cc2nc4c(Cl)cc(F)cc4[nH]2)C3)CC1 [Compound 121] | 96.032 |
| CC(C)(C)NC(=O)CN1C[C@@H]2C[C@H]1CN2CC(=O)NC1CCCCC1 [Compound 289] | 36.292 |
| CC(C)(C)NC(=O)CN1C[C@H]2CC[C@@H]1CN2CC(=O)Nc1ccc(F)c(OC(F)F)c1 [Compound 266] | 61.569 |
| Fc1cc(Cl)c2nc(CN3CC4CC(C3)N4CCOC3CCOCC3)[nH]c2c1 [Compound 146] | 41.657 |
| OC1(CCN2C3CCC2CN(Cc2nc4c(Cl)cc(F)cc4[nH]2)C3)CCCC1 [Compound 92] | 98.505 |
| CC(C)(C)NC(=O)CN1CC2CC1CN2CC(=O)Nc1ccc(F)c(Cl)c1 (stereo not shown) [Compound 233] | 83.643 |
| C[C@H](c1nc2c(Cl)cc(F)cc2[nH]1)N1CC2CCC(C1)N2CC(=O)NC(C)(C)C [Compound 118] | 102.64 |
| C[C@H](NC(=O)CN1CC2CC(C1)N2CC(=O)NC(C)(C)C)C12CC3CC(CC(C3)C1)C2 [Compound 325] | 22.59 |

same assay, conditions: voltage dependent block (VDB); HEK-293 natClytin/TASK1+Cav3.1 cell line; read-out: Cav3.1 IC50

| Structure (SMILES) | pIC50 |
| --- | --- |
| CC1(C)CCC(=O)N1CCN1C2CC1CN(Cc1nc3c(Cl)cc(F)cc3[nH]1)C2 [Compound 150] | 6.19 |
| CC(C)(C)NC(=O)CN1C2CC1CN(CC(=O)NC13CCC(CC1)C3)C2 [Compound 308] | 5.72 |
| CC1(C)CCN1C(=O)CN1C2CC1CN(Cc1nc3c(Cl)cc(F)cc3[nH]1)C2 [Compound 94] | 6.60 |
| COc1cc(NC(=O)CN2CC3CC(C2)N3CC(=O)NC2(C(F)(F)F)CC2)cc(F)c1F [Compound 352] | 6.88 |
| CC(C)(C)NC(=O)CN1C2CC1CN(Cc1nc3c(Cl)cc(F)cc3o1)C2 [Compound 115] | 5.36 |
| Cc1ccc(F)c2[nH]c(CN3CC4CC(C3)N4CC(=O)NC(C)(C)C)nc12 [Compound 207] | 6.92 |
| CC(C(=O)NC(C)(C)C)N1C2CC1CN(CC(=O)Nc1ccc(F)c(OC(F)F)c1)C2 (stereo not shown) [Compound 254] | 6.94 |
| COc1ccc(Cl)c2nc(CN3CC4CC(C3)N4CC(=O)NC(C)(C)C)[nH]c12 [Compound 206] | 6.81 |
| CC(C(=O)Nc1ccc(F)c(Cl)c1)N1CC2CC(C1)N2CC(=O)NC1(C(F)(F)F)CC1 (stereo not shown) [Compound 30] | 6.15 |
| O=C(CN1CC2CC(C1)N2CC(=O)NC1(C(F)(F)F)CC1)Nc1cc(F)c(F)c(OC(F)F)c1 [Compound 361] | 6.90 |
| CC1(C(=O)NCCN2C3CC2CN(Cc2nc4c(Cl)cc(F)cc4[nH]2)C3)CC1 [Compound 121] | 6.60 |
| Fc1cc(Cl)c2nc(CN3CC4CC(C3)N4CCOC3CCOCC3)[nH]c2c1 [Compound 146] | 5.89 |
| OC1(CCN2C3CCC2CN(Cc2nc4c(Cl)cc(F)cc4[nH]2)C3)CCCC1 [Compound 92] | 6.76 |
| C[C@H](NC(=O)CN1CC2CC(C1)N2CC(=O)NC(C)(C)C)C12CC3CC(CC(C3)C1)C2 [Compound 325] | 5.58 |

Other lines, results leading:

| pIC50 | Structure (SMILES) |
| --- | --- |
| 6.76 | O=C(CN1C[C@@H]2C[C@H]1CN2CC(=O)NC1(C(F)(F)F)CC1)Nc1ccc(Cl)c(OC(F)F)c1 [Compound 358] |
| 6.12 | O=C(CN1C[C@@H]2C[C@H]1CN2CC(=O)NC1(C(F)(F)F)CC1)NC12CC3CC(CC(C3)C1)C2 [Compound 280] |
| 5.47 | CC(C)(C)NC(=O)CN1C[C@@H]2C[C@H]1CN2CCNC(=O)C12CC3CC(CC(C3)C1)C2 [Compound 323] |
| 6.38 | CC(C)(C)NC(=O)CN1C[C@@H]2C[C@H]1CN2CC(=O)NC12CC3CC(CC(Cl)(C3)C1)C2 [Compound 344] |
| 5.97 | CC1(C)CN(C(=O)CN2C[C@@H]3C[C@H]2CN3CC(=O)NC23CC4CC(CC(C4)C2)C3)C1 [Compound 317] |
| 6.62 | CC(C(=O)Nc1ccc(F)c(Cl)c1)N1C[C@@H]2C[C@H]1CN2CC(=O)NC(C)(C)C (stereo partly shown) [Compound 264] |
| 6.88 | COc1cc(NC(=O)CN2C[C@@H]3C[C@H]2CN3CC(=O)NC2(C(F)(F)F)CC2)cc(F)c1F [Compound 351] |
| 5.40 | O=C(CN1C[C@@H]2C[C@H]1CN2CC1(F)CCC(F)(F)CC1)NC12CC3CC(CC(C3)C1)C2 [Compound 279] |
| 6.90 | CC(C)(C)NC(=O)CN1CC2COCC(C1)C2CC(=O)Nc1cc(F)cc(Cl)c1 (stereo not shown) [Compound 368] |
| 6.40 | Fc1cc(Cl)c2nc(CN3CCN(CCc4ccccc4)CC3)[nH]c2c1 [Compound 69] |
| 5.97 | Cc1ccc(NC(=O)CN2C[C@@H]3C[C@H]2CN3CC(=O)NC2(C(F)(F)F)CC2)cc1Cl [Compound 355] |
| 5.30 | CC(C)(C)NC(=O)CN1C[C@@H]2C[C@H]1CN2CC(=O)NC1CCCCC1 [Compound 289] |
| 6.10 | CC(C)(C)NC(=O)CN1C[C@H]2CC[C@@H]1CN2CC(=O)Nc1ccc(F)c(OC(F)F)c1 [Compound 266] |
| 6.64 | CC(C)(C)NC(=O)CN1CC2CC1CN2CC(=O)Nc1ccc(F)c(Cl)c1 (stereo not shown) [Compound 233] |
| 6.30 | CC(C)(C)NC(=O)CN1C[C@H]2COC[C@@H](C1)[C@@H]2CNC(=O)c1cc(F)cc(Cl)c1 [Compound 369] |
